US20260325655A1, “DECREASING THE INTRINSICALLY DISORDERED PROTEIN ALPHA-SYNUCLEIN’S LEVELS BY TARGETING ITS STRUCTURED MRNA WITH A RIBONUCLEASE TARGETING CHIMERA” (University of Florida Research Foundation, Incorporated, priority 2023, published 2026)

Experiments:
Format in all cases: cell-based, human
SNCA-UTR-Luciferase = assay: SNCA-UTR luciferase reporter assay; conditions: Homo sapiens, M-HeLa; 2 μM; HeLa cells; read-out: decrease of luminescence signal
Text: (§1) Plasmid constructs and establishment of reporter gene overexpressing cells. Construction of pIRES-Luc-EGFP-puro plasmid and pCDH-α-syn-5′-UTR-Luc-EGFP-puro plasmid used in 5′ UTR-luciferase-based selectivity assay were previously described.^4 Briefly, In-Fusion PCR cloning system (Takara Bio, Mountain View, CA, USA) was used for all plasmid constructions per the manufacturer's instructions. To ensure sequence accuracy, all plasmids generated in this study were confirmed by sequencing.
(§2) Luciferase assay. The effect of compounds on translation of SNCA IRE-containing transcript was measured by using a luciferase reporter assay. HeLa cells (~60% confluency) were transfected with plasmids (2 μg per 60 mm dish) by using JetPrime (Polyplus Transfection) according to the manufacturer's recommended procedures. Approximately 16 h after transfection, the transfection cocktail was removed, and the cells were trypsinized and seeded to 96-well plates (8,000 cells per well). After 6 h, cells were treated as described in Cell Culture. To measure the luciferase signals, the cells were then washed with 1× DPBS, and luciferase activity in each well was measured by using the ONE-Glo Luciferase Assay System (Promega) per the manufacturer's instructions. Luminescence from firefly luciferase reaction was measured using a Biomek FLx800 plate reader.

[1] = test system: SNCA IRE-luciferase reporter; assay: wash-out experiment using the luciferase reporter assay; conditions: 16 h after compound removal; 2 μM
Text: as §1, §2

SNCA mRNA = assay: competition of Synucleozid-2.0 with Syn-RiboTAC in SH-SY5Y cells; conditions: Synucleozid-2.0 0.1-10 μM; Syn-RiboTAC constant 2 μM
Description: Syn-RiboTAC's activity is RNase L-dependent. To validate mode of action, RNase L was knocked down in SH-SY5Y cells with a pool of siRNAs (FIG. 5C), followed by treatment with Syn-RiboTAC. […] Syn-RiboTAC and Synucleozid-2.0 were validated to engage the same binding site in cells by a competition experiment using a constant concentration of Syn-RiboTAC(2 μM) and varying concentrations of Synucleozid-2.0 (0.1-10 μM).
(§3) RNA extraction and reverse transcription-quantitative polymerase chain reaction (RT-qPCR). Total RNA was extracted from cells using a Quick-RNA MiniPrep Kit (Zymo Research) per the manufacturer's protocol including DNase treatment. For each sample, 200 ng of RNA was reverse transcribed into cDNA by using a qScript cDNA Synthesis Kit (QuantaBio) according to the manufacturer's instructions. To assess the relative mRNA levels, RT-qPCR was performed in triplicate using SYBR Green PCR mater mix (Applied Biosystems) with a Quant Studio 5 Real-Time PCR system. The relative levels of mRNA were calculated by using the ΔΔCt method as previously described.^8

ferritin = ferritin protein in SH-SY5Y cells by Western blot
Description: (§4) Western blotting. After 48 h, cells were gently washed with ice-cold 1× DPBS, and total protein was extracted with Mammalian Protein Extraction Reagent (M-PER, Thermo Scientific) per the manufacturer's protocol. After quantifying protein concentration by using BCA Protein Assay Kit (Pierce Biotechnology), ~30 μg of total protein for each sample was separated using a 10% SDS-polyacrylamide gel and transferred onto a PVDF membrane. The membrane was fixed with 0.4% paraformaldehyde (pH=7.0) for 30 min at room temperature^9 and then blocked with 5% (w/v) non-fat dry milk in 1× TBST (1× TBS containing 0.1% Tween-20) for 1 h at room temperature. […] After washing 10 min each with 1× TBST three times, immunocomplex signals of each protein were detected by using a SuperSignal West Pico Chemiluminescent Substrate (Pierce Biotechnology) according to the manufacturer's protocol. The memebrane was then stripped by using 1× Stripping Buffer (200 mM glycine, pH 2.2, 4 mM SDS, 1% (v/v) Tween 20) at room temperature for 15 min, followed by blocking with 5% (w/v) non-fat dry milk at room temperature for 1 h. β-actin was used to normalize the levels of all proteins, measured by incubating with a primary antibody for β-actin (1:5000, 3700S from Cell Signaling Technology) at 4° C. overnight. […]

APP mRNA = APP mRNA in SH-SY5Y cells by RT-qPCR
Description: as §3

HHIPL1 = HHIPL1 protein in SH-SY5Y cells by Western blot; conditions: 2 μM, 48 h
Description: as §4

TfR = TfR protein in SH-SY5Y cells by Western blot
Description: as §4

MYO15B = MYO15B protein in SH-SY5Y cells by Western blot; conditions: 2 μM, 48 h
Description: as §4

APP = APP protein in SH-SY5Y cells by Western blot
Description: as §4

SH-SY5Y cells = assay: cytoprotection of SH-SY5Y cells against α-synuclein pre-formed fibrils (PFF), LDH assay; conditions: Syn-RIBOTAC vs Synucleozid 2.0
Description: Lactate Dehydrogenase (LDH) assay. SH-SY5Y cells in 96-well plates (~60% confluency) were pre-treated with compounds in growth medium for 24 h, followed by addition of 50 ng/μL of human α-synuclein pre-formed fibrils (PFFs, SPR-322 from Eagle Biosciences). The cells were then incubated for an additional 48 h. Cell viability was measured using LDH (Lactate Dehydrogenase) Cytotoxicity Detection Kit (MK401; Takara) according to the manufacturer's instructions.

SMILES | inhibition at 2 µM (SNCA-UTR-Luciferase) [%] | activity after wash-out (in words) [1] | SNCA mRNA levels in competition experiment (SNCA mRNA) | effect on ferritin protein level (ferritin) | effect on APP mRNA level (APP mRNA) | reduction of HHIPL1 protein level (HHIPL1) | effect on TfR protein level (TfR) | reduction of MYO15B protein level (MYO15B) | effect on APP protein level (APP) | cytoprotective effect relative to the binding small molecule (SH-SY5Y cells)
O=C(CSc1nnc(-c2ccncc2)n1-c1ccc(Br)cc1)Nc1ccc2cn[nH]c2c1 [Synucleozid-2.0] | ~25 | inactive | dose-dependent restoration of SNCA mRNA levels |  |  |  |  |  |  | 
CCOC(=O)C1=C(Nc2ccccc2)S/C(=C\c2ccc(OCCOCCOCCOCCNC(=O)CCCOc3ccc(-n4c(SCC(=O)Nc5ccc6cn[nH]c6c5)nnc4-c4ccncc4)cc3)c(O)c2)C1=O [Syn-RiboTAC] | ~40 |  |  | no effect | None of the three transcripts was affected | ~ 20% | no effect | ~ 20% | no effect | 5 -fold
